Data set [1] in a line: Absorption after oral administration of buserelin composition (blood buserelin level, direct method). Format: in vivo, cynomolgus monkeys. To be noted: calcium carbonate carrier, enteric capsules; for level at 2 h / level at 2.5 h: cynomolgus monkey, blood, po; for level at 2 h: 120 min after oral dose; for level at 2.5 h: 150 min after oral dose. The text has this: The particle diameter of calcium carbonate as the carrier was 40 to 45 µm.

The nature of data set [2]: Absorption after oral administration of PTH (1-34) composition with diclofenac (blood PTH (1-34) level, ELISA). Format: in vivo, cynomolgus monkeys. As to conditions: 10 mg diclofenac added to PTH (1-34)/magnesium oxide composition. The text has this: (§1) Then, the resultant mixture was filled in enteric coating capsules.
On the technique in general: An ELISA detects its analyte on a solid surface through an enzyme-linked reagent.

The conditions of data set [3]: cynomolgus monkey, in vivo. Here is the method: Both components were mixed to make a composition in which the PTH (1-34) content was 600 µg/200 mg, and the resultant mixture was filled in enteric coating capsules.
The particle diameter of calcium carbonate, AW ceramics, and magnesium oxide used as the carrier was 40 to 45 µm.
A single oral dose of the above-mentioned composition was administered to two cynomolgus monkeys weighing 5 kg. Their blood samples were collected before dosing, and at 30, 60, 90, 120, 180, 240, 300, and 360 minutes after dosing to determine the blood PTH (1-34) level by using ELISA with a 1-34PTH2 antibody.

Details of data set [4]: species or system cynomolgus monkeys. As to conditions: cynomolgus monkey, in vivo.
Description: as §1

Like-named read-outs stand apart in the source and are kept apart here.

The results in this text go back to patent publication EP0943336A1, “PEPTIDE-CONTAINING PHARMACEUTICAL COMPOSITIONS FOR ORAL ADMINISTRATION” (DOTT RESEARCH LABORATORY, priority 1996, dated 1999).

As to `CCNC(=O)[C@@H]1CCCN1C(=O)[C@H](CCCNC(=N)N)NC(=O)[C@H](CC(C)C)NC(=O)[C@@H](COC(C)(C)C)NC(=O)[C@H](Cc1ccc(O)cc1)NC(=O)[C@H](CO)NC(=O)[C@H](Cc1c[nH]c2ccccc12)NC(=O)[C@H](Cc1cnc[nH]1)NC(=O)[C@@H]1CCC(=O)N1` [buserelin, Buserelin], the Blood buserelin level in data set [1] (30 min after oral dose, Animal No. 1) is 30 or less pg/ml; in data set [1] (30 min after oral dose, Animal No. 2), 30 or less pg/ml; in data set [1] (30 min after oral dose, Animal No. 3), 30 or less pg/ml; in data set [1] (45 min after oral dose, Animal No. 1), 30 or less pg/ml; in data set [1] (45 min after oral dose, Animal No. 2) it was 30 or less pg/ml; in data set [1] (45 min after oral dose, Animal No. 3), 30 or less pg/ml. Besides, the Blood buserelin level in data set [1] (60 min after oral dose, Animal No. 1) was 30 or less pg/ml; in data set [1] (60 min after oral dose, Animal No. 2), 30 or less pg/ml; in data set [1] (60 min after oral dose, Animal No. 3), 30 or less pg/ml; in data set [1] (Before dosing, Animal No. 1, oral) it was 30 or less pg/ml; in data set [1] (Before dosing, Animal No. 2, oral), 30 or less pg/ml; in data set [1] (Before dosing, Animal No. 3, oral), 30 or less pg/ml. Moreover, the values for the level at 2 h in data set [1] (Animal No. 1), in data set [1] (Animal No. 2) and in data set [1] (Animal No. 3) were 0.066 ng/mL, 0.107 ng/mL and 0.053 ng/mL, respectively. The results for the level at 2.5 h in data set [1] (Animal No. 1), in data set [1] (Animal No. 2) and in data set [1] (Animal No. 3) were 0.081 ng/mL, 0.193 ng/mL and 0.07 ng/mL, respectively. Moreover, the “absorption after oral administration (in words)” value in data set [1] is “well absorbed”.
With `O=C(O)Cc1ccccc1Nc1c(Cl)cccc1Cl` [diclofenac], the “effect of addition on absorption of PTH (1-34) (in words)” value in data set [2] is recorded as “enhanced its absorption”.
Consider PTH (1-34), for which the “absorption after oral administration (in words)” value in data set [3] and in data set [4] was “well absorbed” in each case.
